# Measured values taken from patent US6706664B1, “Benzoxazole compounds, process for the preparation thereof and herbicides” (UBE Industries, Ltd., priority 1999, dated 2004).
# Key:
# Set-up in all cases: key: 0: normal development; 1: Less damaged; 2: Slightly damaged; 3: Moderately damaged; 4: Severely damaged; 5: All killed
# [1] = system: wheat; test: Soil treatment test for upland field; assay type: in vivo; settings: 500 g/ha, glass house 25° C., 3 weeks
# In short: (§1)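 Compounds were formulated as wettable powders and applied pre-emergence to the surface of freshly sown alluvial soil at 500 g/ha. After three weeks in a glass house averaging 25° C, damage was rated from 0 (normal development) to 5 (all killed).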
# [2] = system: soybean; test: Soil treatment test for upland field; assay type: in vivo; settings: 500 g/ha, glass house 25° C., 3 weeks
# In short: as §1
# [3] = system: solgum; test: Soil treatment test for upland field; assay type: in vivo; settings: 500 g/ha, glass house 25° C., 3 weeks
# In short: as §1
# [4] = system: cotton; test: Soil treatment test for upland field; assay type: in vivo; settings: 500 g/ha, glass house 25° C., 3 weeks
# In short: as §1
# [5] = system: corn; test: Soil treatment test for upland field; assay type: in vivo; settings: 500 g/ha, glass house 25° C., 3 weeks
# In short: as §1
# [6] = system: livid amaranth; test: Soil treatment test for upland field; assay type: in vivo, Amaranthus lividus; settings: 500 g/ha, glass house 25° C., 3 weeks
# In short: as §1
# [7] = system: flat sedge; test: Herbicidal test for paddy field; assay type: in vivo, Cyperus serotinus; settings: paddy field pot, 500 g/ha dropwise at 1.5 leaf stage of barnyardgrass, 3 weeks, rank vs non-treated
# Procedure: Wagner pots, each having an area of 1/5000 are, were packed with Ube soil (alluvial soil) and planted with seeds or tubers of young rice plant, barnyardgrass, bulrush, flat sedge and monochoria. Then, the pots were filled with water to a depth of 3 cm.
# Each wettable powder of the desired compounds (I) shown in Table 1 prepared in accordance with Example 2 was diluted with water containing a surfactant (0.05%) and subjected to dropwise addition treatment by using pipet so that an effective concentration of the compound (I) in each herbicide became 500 g/ha at 1.5 leaf stage of barnyardgrass.
# These plants were controlled in a glass house at an average temperature of 25° C. for 3 weeks, and then herbicidal effects thereof were investigated.
# The herbicidal effects are evaluated according to the following 6 ranks as compared with non-treated district.
# (0: normal development, 1: Less damaged, 2: Slightly damaged, 3: Moderately damaged, 4: Severely damaged, 5: All killed).
# [8] = system: young rice plant; test: Herbicidal test for paddy field; assay type: in vivo; settings: paddy field pot, 500 g/ha dropwise at 1.5 leaf stage of barnyardgrass, 3 weeks, rank vs non-treated
# In short: (§2)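 Post-flooding water application of 500 g/ha, given at 1.5-leaf barnyardgrass, to plants in Ube alluvial soil held under 3 cm of water. Ratings of 0 to 5 relative to untreated controls were made after three weeks in a glasshouse.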
# [9] = system: bulrush; test: Herbicidal test for paddy field; assay type: in vivo, Scrips juncoides; settings: paddy field pot, 500 g/ha dropwise at 1.5 leaf stage of barnyardgrass, 3 weeks, rank vs non-treated
# In short: as §2
# [10] = system: monochoria; test: Herbicidal test for paddy field; assay type: in vivo, Monochoria vaginalis; settings: paddy field pot, 500 g/ha dropwise at 1.5 leaf stage of barnyardgrass, 3 weeks, rank vs non-treated
# In short: as §2
# [11] = system: Large crabgrass; test: Soil treatment test for upland field; assay type: in vivo, Digitaria adscendens; settings: 500 g/ha, glass house 25° C., 3 weeks
# In short: as §1
# [12] = system: annual bluegrass; test: Soil treatment test for upland field; assay type: in vivo, Poa annua; settings: 500 g/ha, glass house 25° C., 3 weeks
# In short: as §1
# [13] = system: barnyardgrass; test: Soil treatment test for upland field; assay type: in vivo, Echinochloa crusgalli; settings: 500 g/ha, glass house 25° C., 3 weeks
# In short: as §1
# [14] = system: green foxtail; test: Soil treatment test for upland field; assay type: in vivo, Setaria viridis; settings: 500 g/ha, glass house 25° C., 3 weeks
# In short: as §1
# [15] = system: blackgrass; test: Soil treatment test for upland field; assay type: in vivo, Alopecurus aegualis; settings: 500 g/ha, glass house 25° C., 3 weeks
# In short: as §1
# [16] = system: barnyardgrass; test: Herbicidal test for paddy field; assay type: in vivo, Echinochloa crusgalli; settings: paddy field pot, 500 g/ha dropwise at 1.5 leaf stage of barnyardgrass, 3 weeks, rank vs non-treated
# In short: as §2
# [17] = system: common lambsquartes; test: Soil treatment test for upland field; assay type: in vivo, Chenopodium album; settings: 500 g/ha, glass house 25° C., 3 weeks
# In short: as §1
# [18] = system: sugar beat; test: Soil treatment test for upland field; assay type: in vivo; settings: 500 g/ha, glass house 25° C., 3 weeks
# In short: as §1
# [19] = system: velvetleaf; test: Soil treatment test for upland field; assay type: in vivo, Abutilon theophrasti; settings: 500 g/ha, glass house 25° C., 3 weeks
# In short: as §1
SMILES,Effects Wheat [1],Effects Soybean [2],Effects Solgum [3],Effects Cotton [4],Effects Corn [5],Effects Livid amaranth [6],Effect Flat sedge [7],Effect Young rice plant [8],Effect Bulrush [9],Effect Monochoria [10],Effects Large crabgrass [11],Effects Annual bluegrass [12],Effects Barnyardgrass [13],Effects Green foxtail [14],Effects Blackgrass [15],Effect Barnyardgrass [16],Effects Common lambsquarters [17],Effects Sugar beat [18],Effects Velvetleaf [19]
CC(Oc1cccc(C(F)(F)F)c1)c1nc2cc(Cl)ccc2o1 (centres unmarked) [Compound 138],0,0,0,0,0,5,3,0,2,3,4,3,1,2,5,2,3,,
CCC(Oc1ccc(F)c(C(F)(F)F)c1)c1nc2cc(C#N)ccc2o1 (centres unmarked) [Compound 189],,,,,,,5,2,5,5,,,,,,5,,,
CCCC(Oc1ccc(F)c(C(F)(F)F)c1)c1nc2cc(F)c(F)cc2o1 (centres unmarked) [Compound 286],,,,,,,3,3,5,5,,,,,,4,,,
CCC(Oc1ccc(F)c(C(F)(F)F)c1)c1nc2cc(C#N)c(F)cc2o1 (centres unmarked) [Compound 346],,,,,,,5,2,5,5,,,,,,5,,,
CCCC(Oc1ccc(F)c(C(F)(F)F)c1)c1nc2cc(C#N)c(F)cc2o1 (centres unmarked) [Compound 348],,,,,,,4,2,4,5,,,,,,4,,,
CCC(Oc1cccc(C#N)c1)c1nc2cc(C#N)ccc2o1 (centres unmarked) [Compound 392],0,0,5,0,1,5,5,0,5,5,5,4,2,5,,5,3,2,
CCCC(Oc1cccc(C#N)c1)c1nc2cc(C#N)ccc2o1 (centres unmarked) [Compound 393],,,,,,,5,0,5,5,,,,,,4,,,
CCC(Oc1cccc(OC(F)(F)F)c1)c1nc2cc(C#N)ccc2o1 (centres unmarked) [Compound 396],2,2,3,,2,5,5,2,5,5,5,5,5,5,5,2,5,5,5
